Structures can show the parent of a compound that is named as a salt. Where two headings read alike, the source gives them in different places.
Experiments:
[1] = target: inducible NO synthase (iNOS) (Rattus norvegicus, UniProt Q06518); test: Activity to inhibit inducible NO synthase (iNOS) derived from rat macrophages; conversion of [3H]-L-arginine to [3H]-L-citrulline; format: biochemical; set-up: iNOS was extracted from the macrophages which have been treated with lipopolysaccharide and interferon-γ; endogenous in cells; host or cells: rat peritoneal macrophages treated with lipopolysaccharide and interferon-γ
Procedure: Activity to inhibit inducible NO synthase (iNOS) derived from rat macrophages
According to partly modified method of Y. Yui et al.(J. Biol. Chem., 266 (19), 12544-12547 (1991)), an iNOS fraction was prepared by applying lipopolysaccharide and interferon-γ to peritoneal macrophages. Thereafter, its enzymatic activity was measured based on the conversion of [³H]-L-arginine to [³H]-L-citrulline, in the same manner as in the case of cNOS.
To the iNOS thus extracted, a 50 mM Tris-HCl buffer solution (pH 7.4) containing 150 µM L-arginine, 5 mM NADPH, 5 mM DTT, 0.5 mM 5,6,7,8-tetrahydro-L-biopterin and 5 µM FAD was added together with a test compound and [³H]-L-arginine. The mixture was incubated for 30 minutes at 37°C. Thereafter, the reaction was terminated by adding a 25 mM sodium acetate buffer solution (pH 5.5) containing 1.25 mM L-citrulline, 2.5 mM EDTA and 0.25 mM EGTA. The reaction solution was passed through a cation-exchange resin. The obtained eluate was combined with the additional eluate obtained thereafter by eluting with water, and the radioactivity of the combined eluate was measured. The inhibition rate of the test compound on iNOS was calculated in the same manner as in Test 1. The concentration (IC₅₀) of the test compound required for inhibiting 50 % of the enzyme activity, were calculated.

[2] = target: T1, constitutive NO synthase (cNOS) (Rattus norvegicus, UniProt P29476); test: Activity to inhibit constitutive NO synthase (cNOS) derived from rat cerebellum; conversion of [3H]-L-arginine to [3H]-L-citrulline; format: biochemical
T1 construct: cNOS was extracted from a rat cerebellum; from tissue; host or cells: rat cerebellum
Procedure: Activity to inhibit constitutive NO synthase (cNOS) derived from rat cerebellum
The inhibition activity was tested according to a method of P. A. Bush et al. (Biochem, Biophys, Res. Commun., 185, 960-966 (1992)), using [³H]-L-arginine as a substrate and taking the conversion of [³H]-L-arginine to [³H]-L-citrulline as an index of the enzyme activity.
The test was conducted as follows: First, cNOS was extracted from a rat cerebellum with a 50 mM Tris-HCl buffer solution (pH 7.4) which contains 0.1 mM EDTA (ethylenediamine tetraacetate), 0.1 mM EGTA (ethyleneglycol bis(β-aminoethyl ether)-tetraacetate), 0.5 mM DTT (dithiothreitol), 1 µM PMSF (phenylmethylsulfonyl fluoride), 1 µM bestatin A, and 1 µM leupeptin. To the cNOS thus extracted, a 50 mM Tris-HCl buffer solution (pH 7.4) containing 10 µM L-arginine, 10 µM NADPH, 2 mM calcium chloride and calmoduline (0.1 µg), together with a test compound and [³H]-L-arginine were added. The mixture was incubated for 10 minutes at 25°C. The reaction was terminated by adding 20 mM sodium acetate buffer solution (pH 5.5) containing 1 mM L-citrulline, 2 mM EDTA, and 0.2 mM EGTA. The reaction solution was passed through a cation-exchange resin. This eluate was combined with another eluate which was obtained thereafter by eluting with water. To the combined eluate, a liquid scintillation cocktail was further added and its radioactivity (A) was measured. At the same time, the radioactivity (B) with respect to the case where the test compound was not added and the radioactivity (C) with respect to the case where an enzyme fraction was not added, were respectively measured. Then, the rate of cNOS inhibition was calculated in accordance with the following equation. The concentration (IC₅₀), at which the test compound can inhibit 50 % of the enzyme activity, were also calculated. Inhibition rate (%) = {1 - (A - C/B - C)} × 100 [formula]

[3] = cNOS extracted from rat cerebellum, 10 µM L-arginine, 10 minutes at 25°C, read-out: IC₅₀
[4] = iNOS from peritoneal macrophages treated with lipopolysaccharide and interferon-γ, 150 µM L-arginine, 30 minutes at 37°C, read-out: IC₅₀

Molecule	IC50 [1] [nM]	IC50 [2, 3] [nM]	IC50 [1, 4] [nM]	IC50 [2] [nM]
NC1=NCCS1 [Comparative Example 1, 2-aminothiazoline, reference compound]	2000			
CC(C)[C@@H]1CCSC(N)=N1 [Example 1, (S)-2-amino-5,6-dihydro-4-isopropyl-4H-1,3-thiazine hydrobromide]		20	300	
CC(C)[C@H]1CCSC(N)=N1 [Example 2, (R)-2-amino-5,6-dihydro-4-isopropyl-4H-1,3-thiazine hydrobromide]		300		
CCC[C@H]1CCSC(N)=N1 [Example 4, (S)-2-amino-5,6-dihydro-4-propyl-4H-1,3-thiazine hydrobromide]		30	20	
CCCC[C@@H]1CCSC(N)=N1 [Example 5, (R)-2-amino-4-butyl-5,6-dihydro-4H-1,3-thiazine hydrobromide]		30	40	
CCCC[C@H]1CCSC(N)=N1 [Example 6, (S)-2-amino-4-butyl-5,6-dihydro-4H-1,3-thiazine hydrobromide]		30	70	
CC(C)C[C@@H]1CCSC(N)=N1 [Example 7, (R)-2-amino-5,6-dihydro-4-isobutyl-4H-1,3-thiazine hydrobromide]		40	70	
CC(C)C[C@H]1CCSC(N)=N1 [Example 8, (S)-2-amino-5,6-dihydro-4-isobutyl-4H-1,3-thiazine hydrobromide]		80	70	
NC1=N[C@H](Cc2ccccc2)CCS1 [Example 9, (R)-2-amino-4-benzyl-5,6-dihydro-4H-1,3-thiazine hydrobromide]				200
NC1=N[C@@H](Cc2ccccc2)CCS1 [Example 10, (S)-2-amino-4-benzyl-5,6-dihydro-4H-1,3-thiazine hydrobromide]	600			30
CC1CCCSC(N)=N1 (stereo not drawn) [Example 12, Bis(2-amino-4,5,6,7-tetrahydro-4-methyl-1,3-thiazepine) fumarate]	70			100
CCC[C@@H]1CCCSC(N)=N1 [Example 13, (R)-2-amino-4,5,6,7-tetrahydro-4-propyl-1,3-thiazepine hydrobromide]		300		
CC1(C)CN=C(N)SC1 [Example 16, 2-amino-5,6-dihydro-5,5-dimethyl-4H-1,3-thiazine hydrobromide]		200	500	
NC1=NC(O)CCS1 (stereo not drawn) [Example 17, 2-amino-5,6-dihydro-4-hydroxyl-4H-1,3-thiazine hydrochloride]		20	50	
COC1CCSC(N)=N1 (stereo not drawn) [Example 18, Bis(2-amino-5,6-dihydro-4-methoxy-4H-1,3-thiazine) fumarate]	10			20
CCCOC1CCSC(N)=N1 (stereo not drawn) [Example 19, 2-amino-5,6-dihydro-4-propyloxy-4H-1,3-thiazine hydrochloride]		40	30	
CC(C)OC1CCSC(N)=N1 (stereo not drawn) [Example 20, 2-amino-5,6-dihydro-4-isopropoxy-4H-1,3-thiazine fumarate]		30	30	
NC1=NC(OCc2ccccc2)CCS1 (stereo not drawn) [Example 22, Bis(2-amino-4-benzyloxy-5,6-dihydro-4H-1,3-thiazine) fumarate]	600			100
NC1=NC(OCCc2ccccc2)CCS1 (stereo not drawn) [Example 25, Bis(2-amino-5,6-dihydro-4-(2-phenyl)ethyloxy-4H-1,3-thiazine) fumarate]	300			100
CCOC1CC(C)SC(N)=N1 (stereo not drawn) [Example 26, Bis(2-amino-4-ethoxy-5,6-dihydro-6-methyl-4H-1,3-thiazine) fumarate]	90			80
CC1CC(OCc2ccccc2)N=C(N)S1 (stereo not drawn) [Example 27, Bis(2-amino-4-benzyloxy-5,6-dihydro-6-methyl-4H-1,3-thiazine), fumarate]	400			400
(R)-2-amino-4-benzyl-4,5,6,7-tetrahydro-1,3-thiazepine hydrobromide [Example 15]		600		

Reference: patent EP0717040A1, “Thiazine or thiazepine derivatives which inhibit NOS” (Japan Tobacco Inc., priority 1994, dated 1996)
